Values joined by “and” are separate entries in the source; they are usually repeats but may differ in a detail not shown here. Identical values can stand only once.
Experiment: molar heat capacity at constant pressure
Details: 101.33 kPa, Vacuum adiabatic calorimetry

CCC[n+]1ccn(C)c1.[Br-] [1-methyl-3-propylimidazolium bromide]
molar heat capacity at constant pressure
Details | Crystal 2 | Liquid
228.67 K | 177 J/K/mol | –
229.42 K | 177.5 J/K/mol | –
230 K | 177.8 J/K/mol | 261.5 J/K/mol
230.71 K | 178.2 J/K/mol | –
231.48 K | 178.7 J/K/mol | –
233.47 K | 180 J/K/mol | –
233.54 K | 180 J/K/mol | –
235.59 K | 181.3 J/K/mol | –
235.81 K | 181.5 J/K/mol | –
237.64 K | 182.5 J/K/mol | –
237.86 K | 182.7 J/K/mol | –
239.69 K | 183.9 J/K/mol | –
239.9 K | 184.1 J/K/mol | –
240 K | 184.1 J/K/mol | 263.8 J/K/mol
241.74 K | 185.1 J/K/mol | –
241.94 K | 185.3 J/K/mol | –
243.78 K | 186.4 J/K/mol | –
243.99 K | 186.6 J/K/mol | –
245.82 K | 187.8 J/K/mol | –
246.03 K | 187.9 J/K/mol | –
247.86 K | 189.1 J/K/mol | –
248.07 K | 189.3 J/K/mol | –
249.89 K | 190.6 J/K/mol | –
250 K | 190.6 J/K/mol | 266.2 J/K/mol
250.11 K | 190.7 J/K/mol | –
251.92 K | 192 J/K/mol | –
252.16 K | 192.2 J/K/mol | –
253.95 K | 193.4 J/K/mol | –
254.2 K | 193.6 J/K/mol | –
255.97 K | 194.9 J/K/mol | –
256.25 K | 195.1 J/K/mol | –
257.98 K | 196.4 J/K/mol | –
258.29 K | 196.7 J/K/mol | –
260 K | 198 J/K/mol and 198.1 J/K/mol | 269.1 J/K/mol
260.33 K | 198.3 J/K/mol | –
262 K | 199.6 J/K/mol | –
262.37 K | 199.9 J/K/mol | –
264.01 K | 201.2 J/K/mol | –
264.42 K | 201.7 J/K/mol | –
266.06 K | 203.2 J/K/mol | –
266.47 K | 203.4 J/K/mol | –
268.16 K | 205.1 J/K/mol | –
268.52 K | 205.3 J/K/mol | –
270 K | 206.7 J/K/mol | 272 J/K/mol
270.26 K | 207.1 J/K/mol | –
270.57 K | 207.1 J/K/mol | –
272.36 K | 209.2 J/K/mol | –
272.62 K | 209.4 J/K/mol | –
274.45 K | 211.5 J/K/mol | –
274.67 K | 211.5 J/K/mol | –
276.54 K | 213.9 J/K/mol | –
276.71 K | 213.9 J/K/mol | –
278.62 K | 216.6 J/K/mol | –
278.75 K | 216.6 J/K/mol | –
280 K | 216.4 J/K/mol | 275.1 J/K/mol
280.68 K | 219.5 J/K/mol | –
280.79 K | 219.5 J/K/mol | –
282.74 K | 222.7 J/K/mol | –
282.84 K | 222.7 J/K/mol | –
284.78 K | 226.4 J/K/mol | –
284.88 K | 226.6 J/K/mol | –
286.82 K | 230.9 J/K/mol | –
288.82 K | 236.3 J/K/mol | –
290 K | 227.1 J/K/mol | 278.2 J/K/mol
290.81 K | 242.8 J/K/mol | –
292.77 K | 251.5 J/K/mol | –
294.69 K | 262.7 J/K/mol | –
295.89 K | – | 280.2 J/K/mol
296.57 K | 278.5 J/K/mol | –
297.86 K | – | 280.6 J/K/mol
298.15 K | – | 280.8 J/K/mol
298.39 K | 300.9 J/K/mol | –
299.92 K | – | 281.4 J/K/mol
300 K | – | 281.4 J/K/mol
300.12 K | 334.9 J/K/mol | –
301.74 K | 387.4 J/K/mol | –
301.97 K | – | 282 J/K/mol
303.2 K | 470.7 J/K/mol | –
304.02 K | – | 282.8 J/K/mol
304.47 K | 613.7 J/K/mol | –
305.51 K | 844.2 J/K/mol | –
306.07 K | – | 283.2 J/K/mol
306.32 K | 1193 J/K/mol | –
306.93 K | 1697 J/K/mol | –
308.12 K | – | 284.1 J/K/mol
309.54 K | 251.4 J/K/mol | 284.6 J/K/mol
310 K | – | 284.7 J/K/mol
310.17 K | – | 284.7 J/K/mol
312.01 K | – | 285.5 J/K/mol
312.22 K | – | 285.3 J/K/mol
314.27 K | – | 285.9 J/K/mol
316.32 K | – | 286.9 J/K/mol
318.37 K | – | 287.5 J/K/mol
320 K | – | 288.1 J/K/mol
320.41 K | – | 288.2 J/K/mol
322.46 K | – | 288.8 J/K/mol
324.5 K | – | 289.6 J/K/mol
326.54 K | – | 290.4 J/K/mol
328.58 K | – | 291 J/K/mol
330 K | – | 291.7 J/K/mol
330.62 K | – | 291.9 J/K/mol
332.66 K | – | 292.7 J/K/mol
334.7 K | – | 293.3 J/K/mol
336.73 K | – | 294.1 J/K/mol
338.61 K | – | 294.7 J/K/mol
340 K | – | 295.3 J/K/mol
340.58 K | – | 295.5 J/K/mol
342.63 K | – | 296.2 J/K/mol
344.68 K | – | 297 J/K/mol
346.73 K | – | 297.8 J/K/mol
348.78 K | – | 298.6 J/K/mol
350 K | – | 299.1 J/K/mol
350.82 K | – | 299.4 J/K/mol
352.87 K | – | 300.3 J/K/mol
354.92 K | – | 300.9 J/K/mol
356.97 K | – | 301.7 J/K/mol
359.01 K | – | 302.5 J/K/mol
360 K | – | 303 J/K/mol
361.05 K | – | 303.5 J/K/mol
363.1 K | – | 304.2 J/K/mol
365.14 K | – | 305 J/K/mol
367.18 K | – | 305.8 J/K/mol
370 K | – | 307 J/K/mol

Source: the NIST ThermoML archive (doi:10.1016/j.jct.2014.07.018)
